Data taken from PubChem BioAssay (NCI).
Values joined by “and” are separate entries in the source; they are usually repeats but may differ in a detail not shown here. Equal entries are not always repeated.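 Cultured in 96-well plates, cells were exposed to test compound for 48 hours across five concentrations. The concentration for 50% growth inhibition is given as GI50. TGI marks complete inhibition of growth.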

Key:
Assay in all cases: NCI-60 cell line screen, 48 h
EKVX NSCLC = tested on: EKVX NSCLC
HT29 colon = tested on: HT29 colon
M14 melanoma = tested on: M14 melanoma
MDA-MB-435 = tested on: MDA-MB-435
NCI-H23 lung = tested on: NCI-H23 lung
SF-268 CNS = tested on: SF-268 CNS
SF-295 CNS = tested on: SF-295 CNS
SF-539 CNS = tested on: SF-539 CNS
SK-MEL-28 melanoma = tested on: SK-MEL-28 melanoma
SNB-19 CNS = tested on: SNB-19 CNS

SMILES	TGI (EKVX NSCLC)	TGI (HT29 colon)	TGI (M14 melanoma)	TGI (MDA-MB-435)	TGI (NCI-H23 lung)	TGI (SF-268 CNS)	TGI (SF-295 CNS)	TGI (SF-539 CNS)	TGI (SK-MEL-28 melanoma)	TGI (SNB-19 CNS)	GI50 (EKVX NSCLC)	GI50 (HT29 colon)	GI50 (SF-295 CNS)	GI50 (SK-MEL-28 melanoma)	GI50 (M14 melanoma)	GI50 (MDA-MB-435)	GI50 (NCI-H23 lung)	GI50 (SF-268 CNS)	GI50 (SF-539 CNS)	GI50 (SNB-19 CNS)
NS(=O)(=O)c1cc(C(=O)O)c(O)c2ccccc12	> 100 µM	> 100 µM	> 100 µM	> 100 µM	> 100 µM	> 100 µM	> 100 µM	> 100 µM	> 100 µM	> 100 µM	–	–	–	–	–	–	–	–	–	–
O=C1/C(=C/c2ccc(Cl)cc2)CNC/C1=C\c1ccc(Cl)cc1	21.2 µM and 6.75 µM	0.697 µM and 3.38 µM	8.7 µM	13.7 µM	4.17 µM and 4.24 µM	3.77 µM	4.59 µM and 5.8 µM	3.2 µM and 4.11 µM	3.74 µM and 2.96 µM	3.14 µM and 11 µM	5.74 µM and 2.29 µM	0.254 µM and 1.28 µM	0.532 µM and 2.26 µM	1.3 µM	–	–	–	–	–	–
CCN(Cc1cccc(Cl)c1)c1ccc(CO)c(Cl)c1	27 µM	14.6 µM	28.6 µM	27.5 µM	23.7 µM	28 µM	13.8 µM	30.8 µM	28.7 µM	28.6 µM	12.4 µM	3.61 µM	1.12 µM	14.5 µM	12.6 µM	13.5 µM	7.51 µM	13.8 µM	15.9 µM	13.8 µM
C=CCC(N[C@H](CO)c1ccccc1)c1cn(Cc2ccccc2Cl)c(=O)n(Cc2ccccc2Cl)c1=O (stereo not given in full)	96.4 µM	> 100 µM	23.1 µM	38.6 µM	62.1 µM	> 100 µM	48 µM	32.5 µM	39.5 µM	> 100 µM	16.1 µM	11 µM	8.13 µM	19.7 µM	6.19 µM	15.9 µM	19.5 µM	18.6 µM	15 µM	35.7 µM
N#Cc1cnc(Nc2cc(NC[C@H]3CNCCO3)c(C(F)(F)F)cn2)cn1	59.4 µM	92 µM	16.7 µM	27.2 µM	26.8 µM	47.5 µM	> 100 µM	17.3 µM	46.5 µM	> 100 µM	17.5 µM	25.7 µM	0.525 µM	16.3 µM	0.388 µM	3.56 µM	0.791 µM	16.2 µM	0.669 µM	9.67 µM
CCc1nc2ccc(N=Nc3c(O)ccc4ccccc34)cc2[nH]1	36.1 µM	44.1 µM	35.1 µM	67.5 µM	49.2 µM	53.3 µM	43.5 µM	35.4 µM	41.5 µM	> 66 µM	–	–	–	–	–	–	–	–	–	–
CCCCCCCCCC[C@H](O)[C@H](O)CC[C@@H](O)[C@H]1CC[C@@H]([C@H]2CC[C@H](CCCCCCC[C@@H](O)CC3=C[C@H](C)OC3=O)O2)O1	–	5.64 µM	58.4 µM	–	–	> 100 µM	31.9 µM	40.9 µM	> 100 µM	–	18.5 µM	–	0.416 µM	47 µM	23.1 µM	28.7 µM	0.951 µM	29.3 µM	15.5 µM	29.5 µM
CCCCCCCCCCCCOC1C(CNC(=O)C2OC3OC(C)(C)OC3C2NC(=O)CN2CCN(c3ccc(OC)cc3)CC2)OC2OC(C)(C)OC21 (stereo not given)	17 µM	5.12 µM	18.9 µM	17.7 µM	32 µM	11.5 µM	18.4 µM	22 µM	23.3 µM	17 µM	5.46 µM	2.12 µM	5.12 µM	5.86 µM	4.73 µM	5.12 µM	9.68 µM	3.12 µM	6.09 µM	5.3 µM
O=C(NCC1CCCO1)c1ccc(NC2=C(Cl)C(=O)N(Cc3ccccc3)C2=O)cc1 (stereo not given)	37 µM	88 µM	23.4 µM	21.7 µM	34.3 µM	45.4 µM	25 µM	31.2 µM	41.1 µM	45.1 µM	20.4 µM	22.2 µM	12.1 µM	18.6 µM	11.2 µM	9.33 µM	17.2 µM	13.2 µM	15.4 µM	21.5 µM
O=[N+]([O-])c1cc([N+](=O)[O-])c(Nn2c3ccccc3c3ccccc32)c([N+](=O)[O-])c1	7.64 µM	8.43 µM and 3.43 µM	–	7.16 µM and 2.27 µM	4.55 µM and 3.96 µM	39 µM and > 100 µM	0.79 µM	15.8 µM and 5.1 µM	51.2 µM and 14.9 µM	54 µM and > 100 µM	0.328 µM	0.323 µM	–	0.483 µM	0.381 µM	0.348 µM	0.313 µM	0.359 µM	0.335 µM	0.376 µM
Cc1cc2c(-c3nc4ccccn4c3N)c(O)c(O)cc2c(O)c1-c1c(C)cc2c(-c3nc4ccccn4c3N)c(O)c(O)cc2c1O	> 25 µM	> 25 µM	> 25 µM	> 25 µM	> 25 µM	> 25 µM	–	20.9 µM	> 25 µM	> 25 µM	0.965 µM	0.979 µM	–	1.16 µM	1.18 µM	0.716 µM	0.543 µM	0.653 µM	0.707 µM	0.661 µM
CC(=O)[C@H]1CCC/C=C/[C@@H]2C[C@H](O)C[C@H]2[C@H](O)/C=C/C(=O)O1	> 100 µM	1.44 µM	> 25.2 µM	> 100 µM	5.58 µM	> 100 µM	> 100 µM	> 100 µM	0.923 µM	> 100 µM	0.932 µM	0.253 µM	4.33 µM	0.261 µM	0.467 µM	0.428 µM	0.527 µM	0.448 µM	1.01 µM	1.64 µM
Oc1c(Cl)cc(Cl)c2ccc(Cn3cc(-c4ccc(C(F)(F)F)cc4)nn3)nc12	19.5 µM	6.75 µM	5.26 µM	3.75 µM	4.76 µM	20.1 µM	32.1 µM	2.94 µM	3.76 µM	22.8 µM	5.8 µM	2.46 µM	17.2 µM	1.78 µM	1.93 µM	1.76 µM	2.04 µM	4.64 µM	1.52 µM	8.94 µM
